# Assay results reported in ChEMBL document CHEMBL1131854, “Design, synthesis and antimuscarinic activity of some imidazolium derivatives” (Bioorg Med Chem Lett, 1999).
# Tests used:
# [1] = molecular target: Muscarinic acetylcholine receptors; M2 & M3 (Homo sapiens) (UniProt P20309+P08172); test: Selectivity ratio between Kb values of M2-receptor (atria) and M3-receptor (ileum); assay type: tissue-based; settings: Cavia porcellus
# [2] = molecular target: Muscarinic acetylcholine receptor M3 (Cavia porcellus) (UniProt Q8VH26); test: Antimuscarinic activity against muscarinic acetylcholine M3-receptor in guinea pig ileum; assay type: tissue-based
# Sequence of Muscarinic acetylcholine receptor M3 (Cavia porcellus) (Q8VH26 1-587): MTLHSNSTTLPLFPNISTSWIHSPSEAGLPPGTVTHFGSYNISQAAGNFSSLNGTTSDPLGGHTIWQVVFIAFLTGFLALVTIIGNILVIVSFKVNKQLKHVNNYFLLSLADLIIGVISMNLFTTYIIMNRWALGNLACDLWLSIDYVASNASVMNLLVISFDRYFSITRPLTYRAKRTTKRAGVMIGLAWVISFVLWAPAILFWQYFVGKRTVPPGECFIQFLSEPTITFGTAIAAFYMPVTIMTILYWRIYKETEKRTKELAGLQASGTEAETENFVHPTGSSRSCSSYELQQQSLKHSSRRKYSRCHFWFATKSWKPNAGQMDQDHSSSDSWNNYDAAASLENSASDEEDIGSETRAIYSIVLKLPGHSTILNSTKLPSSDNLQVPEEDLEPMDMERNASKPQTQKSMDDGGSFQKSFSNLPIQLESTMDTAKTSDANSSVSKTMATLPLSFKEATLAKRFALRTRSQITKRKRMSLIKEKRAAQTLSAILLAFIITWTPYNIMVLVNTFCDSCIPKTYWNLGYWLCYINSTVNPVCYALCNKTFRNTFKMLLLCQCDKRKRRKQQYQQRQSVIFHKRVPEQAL
Ratio [1],Kb [2] [nM],SMILES
7.15,1.02,Cc1ccc(C[n+]2ccn(CCC(C(N)=O)(c3ccccc3)c3ccccc3)c2C)cc1
4.36,5.62,Cc1n(CCC(C(N)=O)(c2ccccc2)c2ccccc2)cc[n+]1Cc1cccc(Cl)c1
17.6,,Cc1nccn1CCCC(C(N)=O)(c1ccccc1)c1ccccc1
26.2,0.756,Cc1n(CCCCC(C(N)=O)(c2ccccc2)c2ccccc2)cc[n+]1Cc1ccccc1
9.32,0.647,Cc1n(CCC(C(N)=O)(c2ccccc2)c2ccccc2)cc[n+]1Cc1ccc(Cl)cc1
4.11,1.14,CCc1n(CCC(C(N)=O)(c2ccccc2)c2ccccc2)cc[n+]1C
2.24,21.1,Cc1ccccc1C[n+]1ccn(CCC(C(N)=O)(c2ccccc2)c2ccccc2)c1C
3.02,4.07,CCC[n+]1ccn(CCC(C(N)=O)(c2ccccc2)c2ccccc2)c1C
1.44,,CCCc1nccn1CCC(C(N)=O)(c1ccccc1)c1ccccc1
3.39,,Cc1nccn1CCCCC(C(N)=O)(c1ccccc1)c1ccccc1
1.74,12.5,CCCc1n(CCC(C(N)=O)(c2ccccc2)c2ccccc2)cc[n+]1C
4.6,2.52,Cc1cccc(C[n+]2ccn(CCC(C(N)=O)(c3ccccc3)c3ccccc3)c2C)c1
24.8,1.24,Cc1n(CCC(C(N)=O)(c2ccccc2)c2ccccc2)cc[n+]1Cc1ccc(-c2ccccc2)cc1
2.45,,CC(C)(C)c1nccn1CCC(C(N)=O)(c1ccccc1)c1ccccc1
13.5,4.96,Cc1n(CCC(C(N)=O)(c2ccccc2)c2ccccc2)cc[n+]1Cc1ccccc1
3.3,,CCc1nccn1CCC(C(N)=O)(c1ccccc1)c1ccccc1
22.1,0.117,Cc1n(CCC(C(N)=O)(c2ccccc2)c2ccccc2)cc[n+]1Cc1ccc(Br)cc1
5.83,3.12,CCCC[n+]1ccn(CCC(C(N)=O)(c2ccccc2)c2ccccc2)c1C
13.5,,NC(=O)C(CCn1ccnc1)(c1ccccc1)c1ccccc1
5.28,0.858,Cc1n(CCC(C(N)=O)(c2ccccc2)c2ccccc2)cc[n+]1Cc1ccc([N+](=O)[O-])cc1
9.94,0.639,Cc1n(CCCC(C(N)=O)(c2ccccc2)c2ccccc2)cc[n+]1Cc1ccccc1
1.68,3.78,Cc1n(CCC(C(N)=O)(c2ccccc2)c2ccccc2)cc[n+]1C
5.67,11.8,Cc1n(CCC(C(N)=O)(c2ccccc2)c2ccccc2)cc[n+]1Cc1ccccc1Cl
13,,Cc1nccn1CCC(C(N)=O)(c1ccccc1)c1ccccc1
1.3,7.11,CC[n+]1ccn(CCC(C(N)=O)(c2ccccc2)c2ccccc2)c1C
